1 compound from US20040259948A1, “Reciprocal regulation of inflammation and lipid metabolism by liver X receptors” (priority 2003, published 2004) can be followed below.

Structures are written as SMILES.

What all share (format): cell-based
The subject of experiment [1] is Thioglycolate-elicited murine peritoneal macrophages. The experiment is described as follows: Expression of NF-κB target genes in LPS-treated macrophages (northern blot, real-time quantitative PCR). How it is done: LPS is an established inducer of the NF-κB signaling pathway in macrophages. Several genes inhibited by LXR ligands in the array studies above are established targets of NF-κB. To further investigate the role of LXRs in NF-κB-dependent gene expression, we analyzed expression of NF-κB target genes in peritoneal macrophages from wild-type mice. […] Expression of NF-κB target genes was determined by northern blot (A) or by real-time quantitative PCR assays (B). 36B4 was used as a control for RNA loading and integrity. […] RNA and protein analysis. Total RNA was extracted using Trizol reagent (Life Technologies, Inc.). Northern blot analysis was carried out as described using radiolabeled cDNA probes (Tontonoz, P. et al. 1998 Cell 93:241-252). Real-time quantitative PCR (TaqMan) analysis was performed using an Applied Biosystems 7700 sequence detector. Two-step real-time PCR was performed as described (Joseph, S. B. et al. 2002 J Biol Chem 277:11019-11025). The primers and probes used are as follows: […]

Experiment [2] concerns human aortic endothelial cells. The experiment is described as follows: TNF-induced gene expression in human aortic endothelial cells. The following applies: TNF 6 hours; real time qPCR. The method, then: (§1) Activation of LXR by synthetic ligands inhibits inflammatory gene expression in multiple human cell types (FIG. 7A-C). TNFα plays a role in the induction of inflammatory mediators in during inflammation. Cells were treated for 6 hours with TNF as indicated and gene expression was measured by real time qPCR.

Experiment [3] has as its system human peripheral blood mononuclear cells. The experiment is described as follows: TNF-induced gene expression in human peripheral blood mononuclear cells. The note with it: TNF 6 hours; real time qPCR. The method, then: as §1
Experiment [4] concerns Thioglycolate-elicited murine peritoneal macrophages. Briefly: LPS-stimulated macrophages: NO production, iNOS and ABCA1 mRNA. How it is done: To investigate the role of LXRs in host defense, the influence of LXR agonists on macrophage responses to bacterial pathogens was tested. Thioglycolate-elicited peritoneal macrophages were infected in vitro with Escherichia coli. After 18 hours, expression of inducible nitric oxide synthase (iNOS) mRNA and nitric oxide (NO) production were assessed. […] This repression occurs over the same concentration range needed to induce the established LXR target gene ATP-binding cassette transporter A1 (ABCA1). A, LXR agonist inhibits nitrite production in response to bacterial infection. […] Cells were then infected with E. coli (A, B) or treated with 100 ng/ml LPS(C, D, E) as indicated. After 18 h, NO production was determined using a colorimetric assay (A, D), or mRNA levels were determined using real-time quantitative PCR assays (B, C, E). […] The inhibitory effect of LXR agonists on iNOS expression was dose-dependent and occurred over the same range of concentration as that required to induce ATP-binding cassette transporter A1 (ABCA1) (FIGS. 1D and E).
The anti-inflammatory activity of LXR ligands can be separated from the induction of lipid metabolism genes such as ABCA1. Murine peritoneal macrophages were treated with LPS to induce iNOS gene expression (FIG. 8A) and were assayed for ABCA1 mRNA by real time qPCR (FIG. 8B). NOx production was measured by colorimetric assay. […] The identification of LXR agonists with only anti-inflammatory activity should greatly increase the usefulness of such compounds as therapeutic agents, because they lack the unwanted side effects on lipid metabolism such as elevation of triglyceride levels.
Cell culture and transfections. Thioglycolate-elicited peritoneal macrophages were cultured in RPMI containing 10% fetal bovine serum (FBS). RAW 264.7 cells were cultured in DMEM containing 10% FBS. For ligand treatments, cells were in cultured medium supplemented with 5% lipoprotein-deficient serum (LPDS) and ligands for 18 h before stimulation. Bacterial infection in vitro was performed as described (Chen, L. M. et al. 1996 Mol Microbiol 21:1101-1115). Transient transfections of RAW 264.7 cells were performed in triplicate in 48-well plates using Superfect reagent (Life Technologies). After transfection, cells were incubated in medium containing 10% LPDS and the indicated ligands for 18 h before stimulation with LPS for an additional 18 h. Luciferase activity was normalized to β-galactosidase activity. NO production was determined spectrophotometrically (Castrillo, A. et al. 2000 Mol Cell Biol 20:1692-1698).
RNA and protein analysis. Total RNA was extracted using Trizol reagent (Life Technologies, Inc.). Northern blot analysis was carried out as described using radiolabeled cDNA probes (Tontonoz, P. et al. 1998 Cell 93:241-252). Real-time quantitative PCR (TaqMan) analysis was performed using an Applied Biosystems 7700 sequence detector. Two-step real-time PCR was performed as described (Joseph, S. B. et al. 2002 J Biol Chem 277:11019-11025). The primers and probes used are as follows: […]

Setting [5] is: pretreated 18 h, 100 ng/ml LPS 3 h and 6 h, northern blot.
[6] abbreviates: pretreated 18 h, 100 ng/ml LPS 6 h, real-time quantitative PCR.
[7] abbreviates: 100 ng/ml LPS, 18 h, real-time quantitative PCR, FIG. 1E.

As for `O=C(O)Cc1cccc(OCCCN(Cc2cccc(C(F)(F)F)c2Cl)CC(c2ccccc2)c2ccccc2)c1` [GW3965], in experiment [1], the “receptor-independent induction of IL-6” value was “modest receptor-independent induction” and the “receptor-independent induction of MCP-1” value is “modest receptor-independent induction”. The “iNOS mRNA expression” value in experiment [1] (LPS, FIG. 3a, receptor-dependent) is listed as “inhibition”. Besides, in experiment [1] (setting [5]), the COX-2 expression result is recorded as “effective inhibitors” and the lκBα expression result is reported as “effective inhibitors”. Further, in experiment [1] (setting [6]), the “IL1-receptor antagonist (IL-1RN) expression” value was “effective inhibitors”, the IL-1β expression entry is “effective inhibitors”, the IL-6 expression result is “effective inhibitors” and the MCP-1 expression entry was “effective inhibitors”. The TNF-induced gene expression entry in experiment [2] is recorded as “inhibited”. Besides, the TNF-induced gene expression result in experiment [3] was “inhibited”. For the same compound, the “nitrite production, dose response” value in experiment [4] (100 ng/ml LPS, 18 h, colorimetric assay, FIG. 1D) is reported as “Dose-dependent inhibition”. In experiment [4] (setting [7]), the “ABCA1 mRNA expression, dose response” value was “Reciprocal dose-dependent regulation” and the “iNOS mRNA expression, dose response” value is recorded as “Reciprocal dose-dependent regulation”. Moreover, the “inhibition of inflammatory genes (NOx production), T1317 compared with GW3965” value in experiment [4] (LPS, increasing doses, colorimetric assay, FIG. 8A) was “more effective inhibitor”.
